# Source: patent US6673749B1, “Use of phyllocladane diterpenoids for plant growth promotion and alleviation of growth retardant allelochemicals, and method therefor” (Council of Scientific and Industrial Research, priority 2002, dated 2004)
# Assays:
# Assay in all cases: Seed germination and seedling shoot/root growth test in petridishes
# Assay type in all cases: in vivo
# [1] = tested on: Trigonella foenum-graecum; settings: for Percent (%) germination of seeds in relation to control on 9th day after sowing / Percent (%) root growth of seedlings in relation to control on 9th day after sowing / Percent (%) shoot growth of seedlings in relation to control on 9th day after sowing: Trigonella foenum graecum, control = 100%
# Procedure: (§1) As noted above the activity of phyllocladane diterpenoids used in the practice of this invention was observed when these compounds were tested for their effects on seed germination, root and shoot growth of certain plant species and their antagonistic effect on plant growth retardants by the method described by Bagchi G. D. et al Phytochemistry, 45(6)1131-1133, 1997.
# (§2) Plant growth promoting activity of calliterpenone, calliterpenone monoacetate, and calliterpenone di-acetate was examined at 0.1, 0.01 and 0.001 μM concentrations. The tests were conducted against seeds of two monocotyledonous (Hordeum vulgare and Triticum aestivum) and two dicotyledonous plants (Vigna radiata and Trigonella foenum-graecum). Control seeds were germinated in distilled water and all the observations were compared with […]. The root and shoot growth of all the plant species were affected by the phyllocladane diterpenoids, although the extent of effect varied considerably in the plant species with the chemicals and their concentrations. […] Details of the procedure adopted and results obtained are discussed in the various examples.
# (§3) 100 ml stalk solutions of 0.1 μM concentration were prepared by dissolving required amounts of various test compounds (depending upon their molecular weights) in minimum amount of ethanol or acetone and adding distilled water. From this stalk solution, 0.01 μM and 0.001 μM concentrations were prepared. Calliterpenone and calliterpenone di acetate was dissolved in 2.0 ml absolute ethanol (Merc), while; calliterpenone monoacetate, isopropylideno calliterpenone and trihydroxy calliterpenone were dissolved in 2.0 ml spectral grade acetone (Ranbaxy). The respective control test solutions of distilled water of each concentration also contained equal amount of absolute ethanol or acetone. For an assay, 10 seeds were placed on Whatman filter paper (moistened with 5.0 ml of test solution in a 9.0 cm diameter petridish (in triplicate). The pteridishes were incubated for 9 days in a germinator, maintained at 25.0±1.0° C. with 90% humidity and 4 hr light/day. At the end of incubation, observations were recorded on the seedlings in terms of germination, shoot and root growth. The data on the length of shoot and root of seedlings and number of seeds germinated in different concentrations of compounds were compared with the control, which was taken as 100%. The data thus obtained were presented in Table-1.
# (§4) Root growth of seedlings was measured in the similar way as shoot growth from the experiment as described in Example 1.
# (§5) Effect of test compounds on germination was observed from the same experiment as described in Example 1.
# Hordeum vulgare = settings: control = 100%
# Procedure: as §1, §2, §3, §4, §5
# Triticum aestivum = settings: control = 100%
# Procedure: as §1, §2, §3, §4, §5
# Vigna radiata = settings: Vigna radiata, control = 100%
# Procedure: as §1, §2, §3, §4, §5
compound,measurement,setting,value
"CC1(C)C(O)CCC2(C)C3CCC4CC3(CCC12)CC4(O)CO (stereo not drawn) [Trihydroxy Phyllocladane, 30β, 16α, 17. trihydroxy phyllocladane]",Effect on shoots (in words),"[1]; T. foenum-graecum, all dilutions tested",proved toxic
same,Percent (%) germination of seeds in relation to control on 9th day after sowing,[1]; 0.001 μM,63%
same,Percent (%) root growth of seedlings in relation to control on 9th day after sowing,[1]; 0.001 μM,55%
same,Percent (%) shoot growth of seedlings in relation to control on 9th day after sowing,[1]; 0.001 μM,53%
same,Percent (%) germination of seeds in relation to control on 9th day after sowing,[1]; 0.01 μM,75%
same,Percent (%) root growth of seedlings in relation to control on 9th day after sowing,[1]; 0.01 μM,68%
same,Percent (%) shoot growth of seedlings in relation to control on 9th day after sowing,[1]; 0.01 μM,72%
same,Percent (%) germination of seeds in relation to control on 9th day after sowing,[1]; 0.1 μM,88%
same,Percent (%) root growth of seedlings in relation to control on 9th day after sowing,[1]; 0.1 μM,82%
same,Percent (%) shoot growth of seedlings in relation to control on 9th day after sowing,[1]; 0.1 μM,84%
same,Percent (%) germination of seeds in relation to control on 9th day after sowing,Hordeum vulgare; 0.001 μM,100%
same,Percent (%) root growth of seedlings in relation to control on 9th day after sowing,Hordeum vulgare; 0.001 μM,145%
same,Percent (%) shoot growth of seedlings in relation to control on 9th day after sowing,Hordeum vulgare; 0.001 μM,102%
same,Percent (%) germination of seeds in relation to control on 9th day after sowing,Hordeum vulgare; 0.01 μM,100%
same,Percent (%) root growth of seedlings in relation to control on 9th day after sowing,Hordeum vulgare; 0.01 μM,112%
same,Percent (%) shoot growth of seedlings in relation to control on 9th day after sowing,Hordeum vulgare; 0.01 μM,108%
same,Percent (%) germination of seeds in relation to control on 9th day after sowing,Hordeum vulgare; 0.1 μM,100%
same,Percent (%) root growth of seedlings in relation to control on 9th day after sowing,Hordeum vulgare; 0.1 μM,106%
same,Percent (%) shoot growth of seedlings in relation to control on 9th day after sowing,Hordeum vulgare; 0.1 μM,109%
same,Percent (%) germination of seeds in relation to control on 9th day after sowing,Triticum aestivum; 0.001 μM,100%
same,Percent (%) root growth of seedlings in relation to control on 9th day after sowing,Triticum aestivum; 0.001 μM,90%
same,Percent (%) shoot growth of seedlings in relation to control on 9th day after sowing,Triticum aestivum; 0.001 μM,108%
same,Percent (%) germination of seeds in relation to control on 9th day after sowing,Triticum aestivum; 0.01 μM,100%
same,Percent (%) root growth of seedlings in relation to control on 9th day after sowing,Triticum aestivum; 0.01 μM,113%
same,Percent (%) shoot growth of seedlings in relation to control on 9th day after sowing,Triticum aestivum; 0.01 μM,112%
same,Percent (%) germination of seeds in relation to control on 9th day after sowing,Triticum aestivum; 0.1 μM,100%
same,Percent (%) root growth of seedlings in relation to control on 9th day after sowing,Triticum aestivum; 0.1 μM,111%
same,Percent (%) shoot growth of seedlings in relation to control on 9th day after sowing,Triticum aestivum; 0.1 μM,116%
same,Percent (%) germination of seeds in relation to control on 9th day after sowing,Vigna radiata; 0.001 μM,100%
same,Percent (%) root growth of seedlings in relation to control on 9th day after sowing,Vigna radiata; 0.001 μM,100%
same,Percent (%) shoot growth of seedlings in relation to control on 9th day after sowing,Vigna radiata; 0.001 μM,136%
same,Percent (%) germination of seeds in relation to control on 9th day after sowing,Vigna radiata; 0.01 μM,150%
same,Percent (%) root growth of seedlings in relation to control on 9th day after sowing,Vigna radiata; 0.01 μM,102%
same,Percent (%) shoot growth of seedlings in relation to control on 9th day after sowing,Vigna radiata; 0.01 μM,145%
same,Percent (%) germination of seeds in relation to control on 9th day after sowing,Vigna radiata; 0.1 μM,150%
same,Percent (%) root growth of seedlings in relation to control on 9th day after sowing,Vigna radiata; 0.1 μM,93%
same,Percent (%) shoot growth of seedlings in relation to control on 9th day after sowing,Vigna radiata; 0.1 μM,132%
